Broadly, the IC50 is the midpoint of a concentration-inhibition curve. Lower therefore signals greater potency in that assay.

The target in this experiment is Pancreatic triacylglycerol lipase (Sus scrofa) (UniProt P00591). The experiment can be described thus: Compound was tested for inhibition of porcine pancreatic lipase.
Chain of Pancreatic triacylglycerol lipase (Sus scrofa) (P00591 whole entry, looked up): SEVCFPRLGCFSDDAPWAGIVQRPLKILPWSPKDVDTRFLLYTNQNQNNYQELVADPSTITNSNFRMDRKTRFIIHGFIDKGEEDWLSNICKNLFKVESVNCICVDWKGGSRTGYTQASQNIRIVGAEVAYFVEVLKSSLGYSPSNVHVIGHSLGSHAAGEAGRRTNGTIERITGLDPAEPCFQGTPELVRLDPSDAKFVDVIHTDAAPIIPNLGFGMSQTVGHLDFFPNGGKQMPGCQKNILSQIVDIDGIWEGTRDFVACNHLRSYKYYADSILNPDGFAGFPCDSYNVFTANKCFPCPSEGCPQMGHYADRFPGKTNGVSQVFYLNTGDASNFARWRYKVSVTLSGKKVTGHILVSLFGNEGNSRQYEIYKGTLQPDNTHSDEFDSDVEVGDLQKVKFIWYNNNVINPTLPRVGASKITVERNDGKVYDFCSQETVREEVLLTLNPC

The compound `C=C1O[C@@H](C[C@H](CCCCCCCCCCC)OC(=O)[C@H](CC(C)C)NC=O)[C@@H]1CCCCCC` had an IC50 of 3.44 µM.

Source of the values: BindingDB's records for doi:10.1016/s0960-894x(98)00140-1 (University of Connecticut, 1998).
